Results as given in patent publication US20100247448A1, “NOVEL LANTHANIDE LIGANDS AND COMPLEXES, AND USE THEREOF AS CONTRAST AGENTS” (COMMISSARIAT A L'ENERGIE ATOMIQUE, priority 2006, published 2010).
Values joined by “and” are separate entries in the source; they are usually repeats but may differ in a detail not shown here. Identical values can stand only once. Like-named read-outs stand apart in the source and are kept apart here. Blank lines part the entries; values can stand above or below the compound they belong to.

Tests used:
[1] = gadolinium complexes; cited from earlier work
[2] = literature; cited from earlier work
[3] = Absorption and luminescence (excitation, molar absorption, lifetime, quantal throughput); format: physicochemical; details: for molar absorption coefficient: band at ˜36500 cm^−1; for ΦD2O (quantal throughput): in D2O; for ΦH2O (quantal throughput): in H2O; for τD2O (luminescence lifetime): in deuterized water; for τH2O (luminescence lifetime): in water; for emission quantal throughput F: relative to [Tb(dpa)3]^3−, buffer solution Tris 0.1M, 15% experimental error
From the text: The absorption spectra of bpatcn^3− and its complexes of Eu^III and Tb^III show an intense band at ˜36500 cm^−1 with a molar absorption coefficient of 9050 for Eu and of 9100 for Tb. These bands have been attributed to a combination of π-->π* and n-->π* centred transitions of the ligand.
FIGS. 3a and 3b show respectively the emission spectra of the solutions of the europium and terbium complexes at pH=7.4 (obtained after excitation at 273 nm) and the usual and typical transitions ^5D0-->^7FJ and ^5D4-->^7FJ (J=0-6) of the ions Eu^3+ and Tb^3+.
The emission quantal throughput of the complex of [Tb(bpatcn)(H2O)]
The long life time of the luminescence observed for the terbium complex in water (1.5 ms), excludes the presence of a de-energizing process including the energy return of the metal in its energized state towards the ligand.
Chem. Int. Ed. Engl., 1987, 26, 1266; G. Mathis, Clin. Chem., 1993, 39, 195

[4] = Stability constant of the Ca complex by direct titration of 1:1 metal:ligand; pCa; format: physicochemical; details: for logβCaL (log KCaL): present work, 1:1 metal:H3bpatcn 5.10^−4 M, pH 2.5 to 8.5
From the text: (§1) The stability constants of the complexes of H3bpatcn of Gd^III and of […] have been calculated by direct titration of a mixture of 1:1 metal:H3bpatcn (5.10^−4 M) in a pH range between 2.5 and 8.5.
(§2) The titration data may be represented by the following equations:
Ca^2++bpatcn^3−⇄[Ca(bpatcn)]^− log KCaL=8.18(7)

[5] = Stability constant of the Gd complex by direct titration of 1:1 metal:ligand; pGd; format: physicochemical; details: for Log βGdL (log KGdL): present work, 1:1 metal:H3bpatcn 5.10^−4 M, pH 2.5 to 8.5
From the text: as §1, §2
Gd^3++bpatcn^3−⇄[Gd(bpatcn)] log KGdL=15.8(2);

[6] = De-protonation constants (pKa) by potentiometric titration; format: physicochemical; details: 0.1 M KCl, 298 K
From the text: Both following equivalents protonate the carboxylate moieties associated with the pyridines (pKa2=2.3(2), pKa3=3.71(3).
The protonation curve and the structural data match a simultaneous partial protonation of the three nitrogens of the macrocycle as observed for the ligand H3nota, followed by the protonation of the carboxylate moieties. The protonation of the third amine and of the nitrogens of the pyridines takes place at lower pH and the related pKa has not been determined.

[7] = cited from earlier work; for Log βGdL (log KGdL): literature
[8] = cited from earlier work; for logβCaL: literature
[9] = pH 7.4, [M]total=1 μM, [bpatcn]total=10 μM
[10] = commercial contrast agent, comparison

SMILES: O=C(O)CN1CCN(CC(=O)O)CCN(CC(=O)O)CCN(CC(=O)O)CC1 (Gd complex, metal not drawn) [dota, 1,4,7,10-tetraazacyclododecane-N,N′,N″,N′″-tetra-acetic (H4dota) acid]
zero-field spin electronic relaxation [1]: 650 ps

SMILES: C1CNCCNCCN1 [1,4,7-triazacyclononane]
pKa (highest, first listed) [2]: 10.42
pKa (second listed) [2]: 6.82

ε [3]: 9050 M⁻¹ cm⁻¹
λexc [3]: 273 nm
molar absorption coefficient [3]: 9050 M⁻¹ cm⁻¹
ΦD2O (quantal throughput) [3]: 0.12
ΦH2O (quantal throughput) [3]: 0.05
τD2O (luminescence lifetime) [3]: 1.67 (4) ms
τH2O (luminescence lifetime) [3]: 0.542 (4) ms
emission quantal throughput F [3]: 5%
SMILES: O=C([O-])CN1CCN(Cc2cccc(C(=O)[O-])n2)CCN(Cc2cccc(C(=O)[O-])n2)CC1.[Eu+3] [Eu (bpatcn)]

pCa (−log [M]free) [4, 9]: 6.30
logβCaL (log KCaL) [4]: 8.18(7)
increase in stability of the gadolinium complex (relative to nota complex) ([5]; due to two pyridyl nitrogen donors): 2.1 log units
pGd (−log [M]free) [5, 9]: 13.6
Log βGdL (log KGdL) [5]: 15.8(2)
pKa4 ([6]; macrocycle nitrogen): 5.42(3)
pKa5 ([6]; macrocycle nitrogen): 10.5(2)
pKa2 ([6]; picolinate carboxylate): 2.3(2)
pKa3 ([6]; picolinate carboxylate): 3.7(3) and 3.71(3)
pKa1 ([6]; protonation of the carboxylate moiety): 2.2(2)
ε [3]: 7850 M⁻¹ cm⁻¹
λexc [3]: 272 nm
SMILES: O=C(O)CN1CCN(Cc2cccc(C(=O)O)n2)CCN(Cc2cccc(C(=O)O)n2)CC1 [H3bpatcn]

SMILES: O=C(O)CN1CCN(CC(=O)O)CCN(CC(=O)O)CC1 [H3nota, 1,4,7-triazacyclononane-N,N′,NN″-triacetic (H3nota) acid]
Log βGdL (log KGdL) [7]: 13.7
logβCaL [8]: 8.92
pKa (highest, first listed) [2]: 11.3(1)
pKa (second listed) [2]: 5.6
pKa (third listed) [2]: 2.88(2)

SMILES: O=C(O)CN(CC(=O)O)CC(=O)O [H3nta, nitrilotriethanoic acid]
Log βGdL (log KGdL) [7]: 11.4
pKa (highest, first listed) [2]: 9.75
pKa (second listed) [2]: 2.64
pKa (third listed) [2]: 1.57

SMILES: O=C(O)c1cccc(CN(Cc2cccc(C(=O)O)n2)Cc2cccc(C(=O)O)n2)n1 [H3tpaa, α, α′, α″ nitrilotri(6-methyl-2-pyridinecarboxylic) acid]
Log βGdL (log KGdL) [7]: 10.2(2)
logβCaL [8]: 8.5(2)
pKa (highest, first listed) [2]: 4.11(6)
pKa (second listed) [2]: 3.3(1)
pKa (third listed) [2]: 2.5(2)

SMILES: O=C(O)CN(CCN(CC(=O)O)Cc1cccc(C(=O)O)n1)Cc1cccc(C(=O)O)n1 [H4bpdea, N,N′-bis[(6-carboxypyridin-2-yl)methyl]-ethylene diamine-N,N′-diacetic (H4bpeda) acid]
Log βGdL (log KGdL) [7]: 15.1(3)
logβCaL [8]: 9.4(1)
pKa (fourth listed) [2]: 2.9(1)
pKa (highest, first listed) [2]: 8.5(1)
pKa (second listed) [2]: 5.2(2)
pKa (third listed) [2]: 3.5(1)

SMILES: O=C(O)CN(CCN(CC(=O)O)CC(=O)O)CC(=O)O [H4edta]
Log βGdL (log KGdL) [7]: 17.4
logβCaL [8]: 10.5
pKa (fourth listed) [2]: 2.60
pKa (highest, first listed) [2]: 10.19
pKa (second listed) [2]: 6.13
pKa (third listed) [2]: 2.69

SMILES: O=C(O)CN(CCN(CC(=O)O)Cc1ccccn1)Cc1ccccn1 [N,N′-bis(2-pyridinylmethyl)ethylenediamine-N,N′-diacetate]
contribution of the 2-pyridylmethyl to stability of the Gd^III complex ([7]; estimated): 2.6 log units

ε [3]: 9100 M⁻¹ cm⁻¹
λexc [3]: 273 nm
quantal throughput value Φ ([3]; as stated in text before the table): 48%
molar absorption coefficient [3]: 9100 M⁻¹ cm⁻¹
ΦD2O (quantal throughput) [3]: 0.48
ΦH2O (quantal throughput) [3]: 0.43
τD2O (luminescence lifetime) [3]: 2.46 (7) ms
τH2O (luminescence lifetime) [3]: 1.5 ms and 1.49 (2) ms
emission quantal throughput F [3]: 43%
SMILES: O=C([O-])CN1CCN(Cc2cccc(C(=O)[O-])n2)CCN(Cc2cccc(C(=O)[O-])n2)CC1.[Tb+3] [Tb (bpatcn)]

logβCaL (log KCaL) [4]: 8.18(7)
SMILES: O=C(O)CN1CCN(Cc2cccc(C(=O)[O-])n2)CCN(Cc2cccc(C(=O)[O-])n2)CC1.[Ca+2] [[Ca(bpatcn)]^−]

Log βGdL (log KGdL) [5]: 15.8(2)
SMILES: O=C([O-])CN1CCN(Cc2cccc(C(=O)[O-])n2)CCN(Cc2cccc(C(=O)[O-])n2)CC1.[Gd+3] [[Gd(bpatcn)]]

SMILES: CNC(=O)CN(CCN(CCN(CC(=O)[O-])CC(=O)NC)CC(=O)[O-])CC(=O)[O-].[Gd+3] [[Gd(dtpa-bma)(H2O)]^−]
pGd [7, 10]: 15.8
Log βGdL (log KGdL) [7]: 1.85
pCa [8, 10]: 6.39

SMILES: O=C([O-])c1cccc(CN2CCN(Cc3cccc(C(=O)[O-])n3)CCN(Cc3cccc(C(=O)[O-])n3)CC2)n1.[Gd+3] [[Gd(tpatcn)]]
zero-field spin electronic relaxation [1]: approx. 1500 ps
